Experimental data reported in patent US20060079453A1, “Hla binding peptides and their uses” (priority 2002, published 2006).
Where two headings read alike, the source gives them in different places. No end group written: not given here.

Key:
Experiment in all cases: biochemical
Format in all cases: binding
[1] = target: HLA-DR DRB1*0101 (DR1) (Homo sapiens, UniProt P01903+P01911, A100R/D57E/F55L/F60I/F76Y/I96L/L162R/M171V/P40L/Q125E/R42F/V115G/Y59C)
[2] = target: HLA-DR DRB1*0301 (DR3) (Homo sapiens, UniProt P01903+P01911, A100K/A102G/A103R/A169T/F55Y/I96L/K41T/L162R/M171V/P40S/Q125H/Q178H/Q39Y/R42S/S66N/T106N/T262R/W38E/Y61H)
HLA-DR DRB1*0301 (DR3), sequence (P01903 26-254 limits assumed, other chains not shown): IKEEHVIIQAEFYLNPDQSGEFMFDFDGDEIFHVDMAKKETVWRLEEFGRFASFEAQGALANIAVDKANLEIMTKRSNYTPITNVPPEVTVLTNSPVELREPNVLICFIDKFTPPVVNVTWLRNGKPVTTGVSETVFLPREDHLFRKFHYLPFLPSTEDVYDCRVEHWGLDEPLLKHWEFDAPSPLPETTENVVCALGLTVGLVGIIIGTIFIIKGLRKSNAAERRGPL

[3] = target: HLA-DR DRB1*0401 (DR4) (Homo sapiens, UniProt P01903+P01911, A100K/A169T/F76Y/I96L/K127E/L162R/M171V/N62H/P40V/Q125Y/R42H/S133A/S149N/S66Y/V115G/V209L/W38E)
[4] = target: HLA-DR DRB1*0405 (DR4) (Homo sapiens, UniProt P01903+P01911, A100R/A169T/D86S/F76Y/I96L/K127E/L162R/M171V/N62H/P40V/Q125Y/R42H/S133A/S149N/S66Y/V115G/V209L/W38E)
[5] = target: HLA-DR DRB1*0701 (DR7) (Homo sapiens, UniProt P01903+P01911, A100R/A102G/A103Q/D57E/D86V/E43K/F76Y/K127E/L162R/M171V/P40G/Q125H/Q99D/R33Q/R42Y/R54Q/S133A/S66F/T210M/V115G/Y107V/Y59L/Y89S)
[6] = target: HLA-DR DRB1*0901 (DR9) (Homo sapiens, UniProt P01903+P01911, A100R/A103E/D57H/D86V/F55Y/F60I/F76Y/I96F/K127E/L162R/M171V/P40D/Q125H/Q99R/R33Q/R42F/S133A/S66N/T210M/V115G/W38K/Y107V/Y59G/Y89S); settings: DRB1 *0901
[7] = target: HLA-DR DRB1*1101 (DR11) (Homo sapiens, UniProt P01903+P01911, A100R/A169T/A87E/I96F/K41T/L162R/M171V/P40S/Q125H/Q178H/Q39Y/Q99D/R42S/S66Y/T262R/V115G/W38E)
HLA-DR DRB1*1101 (DR11), sequence (P01903 26-254 limits assumed, other chains not shown): as above

[8] = target: HLA-DR DRB1*1302 (DR13) (Homo sapiens, UniProt P01903+P01911, A100E/A169T/K41T/L162R/M171V/P40S/Q125H/Q178H/Q39Y/Q99D/R42S/S66N/T262R/V115G/W38E/Y61H)
HLA-DR DRB1*1302 (DR13), sequence (P01903 26-254 limits assumed, other chains not shown): as above

[9] = target: HLA-DR DRB1*1501 (DR15) (Homo sapiens, UniProt P01903+P01911)
[10] = target: HLA-DR DRB3*0101 (DR52) (Homo sapiens, UniProt P01903+P79483)
[11] = target: HLA-DR DRB4*0101 (DR53) (Homo sapiens, UniProt P01903+P13762, G164S)
[12] = target: HLA-DR DRB5*0101 (DR51) (Homo sapiens, UniProt P01903+Q30154)
[13] = target: HLA-DR DRB1*0802 (DR8) (Homo sapiens, UniProt P01903+P01911, A100R/A103L/A169T/F76Y/H45Y/I96F/K41T/L162R/M171V/P40S/Q125H/Q178H/Q39Y/Q99D/R218S/R42G/S66Y/V115G/W38E)

| Compound | IC50 ([1]; DRB1 *0101) [µM] | IC50 [2] [µM] | IC50 ([3]; DRB1 *0401) [µM] | IC50 ([4]; DRB1 *0405) [µM] | IC50 ([5]; DRB1 *0701) [µM] | IC50 ([7]; DRB1 *1101) [µM] | IC50 ([8]; DRBI *1302) [µM] | IC50 ([9]; DRBI *1501) [µM] | IC50 [10] [µM] | IC50 ([11]; DRB4 *0101) [µM] | IC50 ([12]; DRB5 *0101) [µM] | IC50 [4] [µM] | IC50 [5] [µM] | IC50 [7] [µM] | IC50 [8] [µM] | IC50 [9] [µM] | IC50 [12] [µM] | IC50 [3] [µM] | IC50 [11] [µM] | other results |
| --- | --- | --- | --- | --- | --- | --- | --- | --- | --- | --- | --- | --- | --- | --- | --- | --- | --- | --- | --- | --- |
| CC[C@H](C)[C@H](NC(=O)CNC(=O)[C@H](CC(C)C)NC(=O)[C@H](CC(C)C)NC(=O)[C@H](CCCNC(=N)N)NC(=O)[C@H](CO)NC(=O)[C@@H](NC(=O)[C@H](Cc1ccc(O)cc1)NC(=O)[C@@H]1CCCN1C(=O)[C@H](CO)NC(=O)CNC(=O)[C@@H](NC(=O)CN)C(C)C)C(C)C)C(=O)N[C@@H](CS)C(=O)N[C@@H](CC(C)C)C(=O)O | 0.019 | 168 | 1.57 | 4.16 | 0.19 | 0.696 | 0.955 | 0.046 | 149 |  |  |  |  |  |  |  |  |  |  | IC50 [6]: 2.61 µM |
| APPRLITDSRVLERY | 10.1 | 0.015 | 6.68 | 7.77 | 0.629 | 2.75 | 0.092 |  | 0.71 | 2.26 | 0.698 |  |  |  |  |  |  |  |  | IC50 [6]: 8.39 µM |
| ELVSEFSRMARDPQ | 0.201 |  | 0.12 | 15.1 | 21.3 | 4.57 | > 71.4 | 7.89 | 15.8 | 0.97 |  |  |  |  |  |  |  |  |  | IC50 [6]: 91.6 µM |
| EMLQNIFAIFRQDSS | 0.395 | 9.54 | 0.685 | 0.456 | 3.31 | 36.8 | 0.061 | 1.72 | 0.726 | 0.164 | 3.19 |  |  |  |  |  |  |  |  | IC50 [6]: 9.74 µM |
| FTRGKRMSSLHLKRY | 0.013 | 3.3 | 1.01 | 0.484 |  | 0.081 | 10.2 |  | 18.8 | 2.03 | 0.084 |  |  |  |  |  |  |  |  | IC50 [13]: 0.553 µM |
| GAALGGAARALAHGV |  | 26.9 |  |  |  |  |  |  | > 71 |  |  | > 13 | 29.8 | 0.168 | 19.3 | 4.48 | 25.4 |  |  |  |
| GAPLAGAARALAHGV |  | 2.98 |  |  |  |  |  |  | > 71 |  |  | > 13 | 8.18 | 0.0095 | 7.21 | 2.81 | 7.69 | 39.9 | 2.96 |  |
| GAPLGGAAAALAHGV |  | 82.1 |  |  |  |  |  |  | > 51.1 |  |  | > 3.37 | 31.9 | 43.8 | 23.8 | 7.68 | 12.9 | 5.47 | 0.031 |  |
| GAPLGGAARAAAHGV |  | 378 |  |  |  |  |  |  | > 51.1 |  |  | > 3.37 | 31.3 | 3.63 | > 23.5 | > 8.67 | 42.5 | 25.3 | 41.4 |  |
| GAPLGGAARALAAGV |  | 23.3 |  |  |  |  |  |  | > 51.1 |  |  | > 3.37 | 7.42 | 0.045 | 23.2 | 5.71 | 8.35 | 11.3 | 3.87 |  |
| GAPLGGAARLLAHGV |  | 23 |  |  |  |  |  |  | > 51.1 |  |  | > 3.37 | 57.5 | 0.08 | 29.4 | 0.631 |  | 15 | 2.55 | IC50 [1]: 0.398 µM |
| GAPLGGLARALAHGV |  | 352 |  |  |  |  |  |  | 124 |  |  | > 13 | 0.066 | 0.012 | 0.076 |  | 4.26 | 13.9 | 3.95 | IC50 [1]: 0.537 µM |
| HIEFTPTRTDTYACRV |  |  | 30 | 10 |  | ≥ 200 |  |  | > 7.14 |  | ≥ 200 |  |  |  |  |  |  |  |  | IC50 [13]: > 12.5 µM |
| HLDMLRHLYQGCQVV | 0.304 | 37.6 | 9.42 | 3.59 | 27 |  | 2.88 | 0.359 | 107 | 0.163 | 7.09 |  |  |  |  |  |  |  |  |  |
| HYLKAKEDSHTAWTI | 0.232 | 70.2 | 0.553 | 15.1 | 0.801 | > 60.6 | 2.26 | 0.529 | 35.8 | 11.8 | 19.6 |  |  |  |  |  |  |  |  | IC50 [6]: 10.1 µM |
| RPIVNMDYVVGARTFRREKR | 0.029 | 0.022 | 0.0031 | 0.812 | 0.346 |  | 0.073 | 0.043 | 3.32 | 0.16 | 0.0066 |  |  |  |  |  |  |  |  | IC50 [13]: 0.748 µM |
| RTITADTFRKLFRVY | 0.148 |  | 1.04 | 1.96 |  |  | 0.095 | 0.035 | 0.672 | 1.56 | 0.093 |  |  |  |  |  |  |  |  | IC50 [13]: 0.792 µM |
| VGGAYLLPRRGPRLGV |  | 309 |  |  |  |  |  |  | > 66.5 |  |  | > 12.2 | 0.703 |  | 24.7 | 0.0041 | 0.05 | 26.2 | 37.6 | IC50 [1]: 0.131 µM |
| VGGVALLPRRGPRLGV |  | 326 |  |  |  |  |  |  | > 66.5 |  |  | > 12.2 | 61.6 |  | > 15.4 | 0.0085 | 20.5 | 48.2 | 25.7 | IC50 [1]: 0.849 µM |
| VGGVYALPRRGPRLGV |  | 349 |  |  |  |  |  |  | > 66.5 |  |  | > 12.2 | 0.749 | 0.012 | > 15.4 | 0.451 | 0.034 | 25.7 |  |  |
| VGGVYLAPRRGPRLGV |  | 203 |  |  |  |  |  |  | > 66.5 |  |  | > 12.2 | 0.878 | 0.035 | > 15.4 | 0.055 | 0.076 | 33.7 | > 42.1 | IC50 [1]: 0.746 µM |
| VGGVYLLARRGPRLGV |  | 23.3 |  |  |  |  |  |  | 17 |  |  | 2.2 | 0.595 | 0.0065 |  | 0.0028 | 0.017 | 0.485 | 4.34 | IC50 [1]: 0.06 µM |
| VGGVYLLPARGPRLGV |  | 68.1 |  |  |  |  |  |  | 18.1 |  |  | 4.58 | 0.049 | 0.694 | 0.201 | 0.0065 | 0.04 |  | 19 | IC50 [1]: 0.012 µM |
| VGGVYLLRRAGPRLGV |  | 39.8 |  |  |  |  |  |  | 91.9 |  |  | 6.43 | 0.433 | 0.067 | > 15.4 | 0.0062 | 0.0079 |  | 30.7 |  |
| YGAVVNLRKTVVNFP | 13.5 | 150 | 4.19 | > 95 | 8.27 | 0.089 | 11.2 | 0.47 | 51.5 | 0.302 | 0.036 |  |  |  |  |  |  |  |  |  |
